Organism: Rattus norvegicus
Test: DrugMatrix - Regimen: Daily Repeat
Format: toxicity, organism-based, Sprague-Dawley
Design: regimen Daily Repeat, gender Male, age 6-8 weeks
Details: in vivo, sc, route subcutaneous, […]; for BASOPHIL / EOSINOPHIL / ERYTHROCYTE COUNT / HEMATOCRIT / HEMOGLOBIN / LEUKOCYTE COUNT / LYMPHOCYTE / MEAN CORPUSCULAR HEMOGLOBIN / MEAN CORPUSCULAR HEMOGLOBIN CONCENTRATION / MEAN CORPUSCULAR VOLUME / MONOCYTE / NEUTROPHIL / PLATELET COUNT: tissue Blood; for ALANINE AMINOTRANSFERASE / ALBUMIN / ALKALINE PHOSPHATASE / ASPARTATE AMINOTRANSFERASE / BLOOD UREA NITROGEN / CARBON DIOXIDE / CHLORIDE / CHOLESTEROL / CREATININE / GLUCOSE / LACTATE DEHYDROGENASE / LIPASE / PHOSPHORUS / POTASSIUM / TOTAL BILIRUBIN / TOTAL PROTEIN / URIC ACID: tissue Plasma
[1] = 4 mg/kg, 72 h, dose level Low, time 3 day
[2] = 4 mg/kg, 120 h, dose level Low, time 5 day
[3] = 36 mg/kg, 72 h, dose level High, time 3 day
[4] = 36 mg/kg, 120 h, dose level High, time 5 day

## Nc1c2ccccc2nc2ccccc12 [AMINACRINE]
[1]
  BASOPHIL: 0%
  EOSINOPHIL: 0.67%
  ERYTHROCYTE COUNT: 6.9 x10E6/uL
  HEMATOCRIT: 42.07%
  HEMOGLOBIN: 14.07 G/DL
  LEUKOCYTE COUNT: 11.4 x10E3/uL
  LYMPHOCYTE: 65.33%
  MEAN CORPUSCULAR HEMOGLOBIN: 20.43 pg
  MEAN CORPUSCULAR HEMOGLOBIN CONCENTRATION: 33.4 G/DL
  MEAN CORPUSCULAR VOLUME: 61.1 fL
  MONOCYTE: 8.67%
  NEUTROPHIL: 25.67%
  PLATELET COUNT: 1093.67 x10E3/uL
  ALANINE AMINOTRANSFERASE: 44 u/L
  ALBUMIN: 3.9 G/DL
  ALKALINE PHOSPHATASE: 311.67 u/L
  ASPARTATE AMINOTRANSFERASE: 81 u/L
  BLOOD UREA NITROGEN: 14.67 mg/dL
  CARBON DIOXIDE: 22.33 mmol/L
  CHLORIDE: 106 MEQ/L
  CHOLESTEROL: 68.33 mg/dL
  CREATININE: 0.3 mg/dL
  GLUCOSE: 144.67 mg/dL
  LACTATE DEHYDROGENASE: 297.67 u/L
  LIPASE: 8.67 u/L
  PHOSPHORUS: 9.93 mg/dL
  POTASSIUM: 5.93 MEQ/L
  TOTAL BILIRUBIN: 0.1 mg/dL
  TOTAL PROTEIN: 6 G/DL
  URIC ACID: 0.93 mg/dL
[2]
  BASOPHIL: 0.33%
  EOSINOPHIL: 0%
  ERYTHROCYTE COUNT: 6.82 x10E6/uL
  HEMATOCRIT: 42.2%
  HEMOGLOBIN: 13.8 G/DL
  LEUKOCYTE COUNT: 13.23 x10E3/uL
  LYMPHOCYTE: 62%
  MEAN CORPUSCULAR HEMOGLOBIN: 20.2 pg
  MEAN CORPUSCULAR HEMOGLOBIN CONCENTRATION: 32.67 G/DL
  MEAN CORPUSCULAR VOLUME: 61.87 fL
  MONOCYTE: 3%
  NEUTROPHIL: 34.33%
  PLATELET COUNT: 1028 x10E3/uL
  ALANINE AMINOTRANSFERASE: 47 u/L
  ALBUMIN: 3.4 G/DL
  ALKALINE PHOSPHATASE: 316 u/L
  ASPARTATE AMINOTRANSFERASE: 78.33 u/L
  BLOOD UREA NITROGEN: 17.33 mg/dL
  CARBON DIOXIDE: 22.67 mmol/L
  CHLORIDE: 100.33 MEQ/L
  CHOLESTEROL: 66.33 mg/dL
  CREATININE: 0.3 mg/dL
  GLUCOSE: 141.67 mg/dL
  LACTATE DEHYDROGENASE: 188.67 u/L
  LIPASE: 8 u/L
  PHOSPHORUS: 9.9 mg/dL
  POTASSIUM: 5.47 MEQ/L
  TOTAL BILIRUBIN: 0.1 mg/dL
  TOTAL PROTEIN: 6.13 G/DL
  URIC ACID: 0.9 mg/dL
[3]
  BASOPHIL: 0.33%
  EOSINOPHIL: 0.33%
  ERYTHROCYTE COUNT: 6.95 x10E6/uL
  HEMATOCRIT: 42.07%
  HEMOGLOBIN: 14.1 G/DL
  LEUKOCYTE COUNT: 8.8 x10E3/uL
  LYMPHOCYTE: 76%
  MEAN CORPUSCULAR HEMOGLOBIN: 20.3 pg
  MEAN CORPUSCULAR HEMOGLOBIN CONCENTRATION: 33.47 G/DL
  MEAN CORPUSCULAR VOLUME: 60.57 fL
  MONOCYTE: 3%
  NEUTROPHIL: 20.33%
  PLATELET COUNT: 1177.67 x10E3/uL
  ALANINE AMINOTRANSFERASE: 44.33 u/L
  ALBUMIN: 3.27 G/DL
  ALKALINE PHOSPHATASE: 226.33 u/L
  ASPARTATE AMINOTRANSFERASE: 101.67 u/L
  BLOOD UREA NITROGEN: 17 mg/dL
  CARBON DIOXIDE: 22 mmol/L
  CHLORIDE: 106 MEQ/L
  CHOLESTEROL: 62 mg/dL
  CREATININE: 0.3 mg/dL
  GLUCOSE: 151 mg/dL
  LACTATE DEHYDROGENASE: 142.33 u/L
  LIPASE: 7.67 u/L
  PHOSPHORUS: 9.3 mg/dL
  POTASSIUM: 6 MEQ/L
  TOTAL BILIRUBIN: 0.1 mg/dL
  TOTAL PROTEIN: 6.07 G/DL
  URIC ACID: 1.17 mg/dL
[4]
  BASOPHIL: 0%
  EOSINOPHIL: 0%
  ERYTHROCYTE COUNT: 6.75 x10E6/uL
  HEMATOCRIT: 41.37%
  HEMOGLOBIN: 13.1 G/DL
  LEUKOCYTE COUNT: 11.17 x10E3/uL
  LYMPHOCYTE: 59.67%
  MEAN CORPUSCULAR HEMOGLOBIN: 19.43 pg
  MEAN CORPUSCULAR HEMOGLOBIN CONCENTRATION: 31.73 G/DL
  MEAN CORPUSCULAR VOLUME: 61.3 fL
  MONOCYTE: 4.33%
  NEUTROPHIL: 35.67%
  PLATELET COUNT: 1310.67 x10E3/uL
  ALANINE AMINOTRANSFERASE: 40.67 u/L
  ALBUMIN: 2.83 G/DL
  ALKALINE PHOSPHATASE: 304.33 u/L
  ASPARTATE AMINOTRANSFERASE: 111 u/L
  BLOOD UREA NITROGEN: 17.33 mg/dL
  CARBON DIOXIDE: 22 mmol/L
  CHLORIDE: 101.67 MEQ/L
  CHOLESTEROL: 48 mg/dL
  CREATININE: 0.3 mg/dL
  GLUCOSE: 157.67 mg/dL
  LACTATE DEHYDROGENASE: 113.33 u/L
  LIPASE: 7 u/L
  PHOSPHORUS: 9 mg/dL
  POTASSIUM: 5.17 MEQ/L
  TOTAL BILIRUBIN: 0.1 mg/dL
  TOTAL PROTEIN: 5.5 G/DL
  URIC ACID: 0.97 mg/dL
